# From patent US11085056B2, “Transfection complexes and methods of using the same” (MOLECULAR TRANSFER, INC., priority 2015, dated 2021)
# How the values were obtained:
# NL-1 iPS Cells = assay: Transfection of NL-1 iPS cells with DOTMA/DOPE/peptide and eGFP plasmid, fluorescent plate reader; assay type: cell-based; details: DOTMA/DOPE 1:1 plus peptide with RRRRRRRRRRRR (SEQ ID NO: 109) at n terminus; EF1Alpha eGFP plasmid; 42 hours
# Method: (§1) Cells were plated to so that on the day of transfection the cells were 60-70% confluent in 96 well tissue culture plates. A DOMTA/DOPE Lipid solution (1:1 molar ratio) at 2 mg/mL in water were mixed with an equal volume of surface ligand peptides that had the nucleic acid binding moiety RRRRRRRRRRRR (SEQ ID NO: 109) covalently linked to the n terminus of each peptide during peptide synthesis. Peptides were at 2 mg/mL in water. The DOTMA/DOPE and the surface ligand peptide solution the transfection reagent was diluted 1 to 1 (v/v) in water. DOMTA/DOPE/PEPTIDE solutions were added to 0.1 mL of a plasmid DNA solution (EF1Alpha eGFP plasmid) at 5 μg/mL in OptiMEM. Lipofectamine 2000 was obtained from Life Technologies.
# (§2) All solutions were at room temperature. A volume of 0.2 mL of a 5 μg/mL solution of DNA was aliquoted into each well of a non-tissue cultured treated plate. 4.0 μL of transfection reagents were added to DNA solutions respectively. The transfection reagent and DNA solution was mixed by pipetting up and down twice. Transfection complexes were formed for 10 minutes. After 10 minutes, 0.01 or 0.02 mL of the transfection complex was added to cells. HuVEC, HeLa, human adult keratinocytes, human primary adult fibroblast, and rat cortical neurons all respectively received 0.01 mL of the tramsfectopm complex. Human skeletal muscle cells, mouse C2C12 cells, Jurkat, and THP-1 cells received 0.02 mL of the transfection complex. Cells were incubated for 42 hours at 37° C. at 5% CO2. Plates were read on a fluorescent plate reader. Cells were also examined visually under a microscope to assess the extent of transfection (in terms of the percent of cells transfected) with a fluorescent microscope. Other modes of analysis, for example quantification with B-galactosidase or luciferase reports plasmids can also be used. […] Surface ligand that caused increase expression of GFP over the lipid DOTMA with no surface ligand were considered to enhance transfection or had higher % cells transfected were considered to enhance transfection. Peptides that gave greater than 2 fold enhancement are noted in bold and could be further optimized by adding different transfection enhancers or could be used with different cationic lipids or polymers.
# C2C12 Cells = assay: Transfection of C2C12 cells with DOTMA/DOPE/peptide and eGFP plasmid, fluorescent plate reader; assay type: cell-based, mouse; details: DOTMA/DOPE 1:1 plus peptide with RRRRRRRRRRRR (SEQ ID NO: 109) at n terminus; EF1Alpha eGFP plasmid; 0.02 mL complex; 42 hours
# Method: as §1, §2
# HeLa Cells = assay: Transfection of HeLa cells with DOTMA/DOPE/peptide and eGFP plasmid, fluorescent plate reader; assay type: cell-based; details: DOTMA/DOPE 1:1 plus peptide with RRRRRRRRRRRR (SEQ ID NO: 109) at n terminus; EF1Alpha eGFP plasmid; 0.01 mL complex; 42 hours
# Method: as §1, §2
# Jurkat Cells = assay: Transfection of Jurkat cells with DOTMA/DOPE/peptide and eGFP plasmid, fluorescent plate reader; assay type: cell-based; details: DOTMA/DOPE 1:1 plus peptide with RRRRRRRRRRRR (SEQ ID NO: 109) at n terminus; EF1Alpha eGFP plasmid; 0.02 mL complex; 42 hours
# Method: as §1, §2
# HuVec Cells = assay: Transfection of HuVec cells with DOTMA/DOPE/peptide and eGFP plasmid, fluorescent plate reader; assay type: cell-based; details: DOTMA/DOPE 1:1 plus peptide with RRRRRRRRRRRR (SEQ ID NO: 109) at n terminus; EF1Alpha eGFP plasmid; 0.01 mL complex; 42 hours
# Method: as §1, §2
# some examined cell types = assay: Transfection expression and % cells transfected over the no peptide control; assay type: cell-based; details: on some examined cell types
# Method: as §1, §2
# Human Fibroblast Cells = assay: Transfection of human fibroblast cells with DOTMA/DOPE/peptide and eGFP plasmid, fluorescent plate reader; assay type: cell-based; details: DOTMA/DOPE 1:1 plus peptide with RRRRRRRRRRRR (SEQ ID NO: 109) at n terminus; EF1Alpha eGFP plasmid; 0.01 mL complex; 42 hours
# Method: as §1, §2
Substance,RF (Relative Fluorescence) of Transfection of NL-1 iPS Cells (NL-1 iPS Cells),RF (Relative Fluorescence) of Transfection of C2C12 Cells (C2C12 Cells),RF (Relative Fluorescence) of Transfection of HeLa Cells (HeLa Cells),RF (Relative Fluorescence) of Transfection of Jurkat Cells (Jurkat Cells),RF (Relative Fluorescence) of Transfection of HuVec Cells (HuVec Cells),transfection expression and the % cells transfected over the no peptide control (some examined cell types),RF (Relative Fluorescence) of Transfection of Human Fibroblast Cells (Human Fibroblast Cells)
361 (YIGSR; Peptidic transfection agent) [compound 361],9363,585,3698,7006,6017,increased,7014
338 (GTPGPQGIA; Peptidic transfection agent) [compound 338],17288,2290,6241,4475,12000,increased,5625
256 (RQVFQVAYIIIKA; Peptidic transfection agent) [compound 256],1825,3207,2243,3322,3030,increased,2656
229 (PPFLMLLKGSTR; Peptidic transfection agent) [compound 229],13491,1164,8816,8079,5452,increased,6811
205 (AASIKVAVSADR; Peptidic transfection agent) [compound 205],13140,2102,26368,2298,8309,increased,8550
352 (RIQNLLKITNLRIKFVK; Peptidic transfection agent) [compound 352],11628,3324,32126,3150,3130,increased,3059
226 (ANGQTPIQRYIK; Peptidic transfection agent) [compound 226],24920,1664,7340,12976,20864,increased,3431
354 (SINNTAVMQRLT; Peptidic transfection agent) [compound 354],24043,1912,4403,16705,19284,increased,4998
359 (KAFDITYVRLKF; Peptidic transfection agent) [compound 359],5548,5693,3136,1880,3024,increased,3206
332 (TWYKIAFQRNRK; Peptidic transfection agent) [compound 332],8725,537,9198,3052,4221,increased,5178
220 (ATETTITIS; Peptidic transfection agent) [compound 220],15892,1470,9398,6428,8737,increased,4516
239 (KNSFMALYLSKGRLVFALG; Peptidic transfection agent) [compound 239],4129,10620,2717,2343,1404,increased,4084
327 (VAEIDGIEL; Peptidic transfection agent) [compound 327],31383,2043,5345,14546,21018,increased,4662
